Consider three compounds from patent US7435732B2, “Crystalline polymorphs of (3S)-N-hydroxy-4-({4-[-(4-hydroxy-2-butynyl)oxy]phenyl}sulfonyl)-2,2-dimethyl-3-thiomorpholine carboxamide” (Wyeth, priority 2004, dated 2008).

Data set [1] can be described thus: Solid form conversion under humidity / ambient conditions. Type of data set: physicochemical. Here is the method:
Polymorph form B is likely also an anhydrous form of apratastat. […] Form B disappears upon mild heating (e.g., at or above about 35° C.) under ambient humidity levels.

The nature of data set [2]: Solid form after open pan DSC heating, by powder XRD. It counts as physicochemical. The protocol: X-ray diffraction data (e.g., FIGS. 1, 4, 6 and 8) were collected using a Philips X'Pert PW-3040-MPD X-ray diffractometer (Philips, Bothell, Wash.) set at 40 kV and 40 mA. Data was collected as a continuous scan at 0.02°/sec. between […].
DSC data (e.g., FIG. 10) were collected using a TA Instruments DSC 2920 Differential Scanning Calorimeter (TA Instruments, New Castle, Del.). Measurements were carried out in both closed pan and open pan modes on about 5-35 mg samples. The heating profile was from 25° C. to 170° C. at 5° C./min, or 25° C. to 120° C. at 5° C./min with a ten minute holding time at 120° C., or 25° C. to 135° C. at 5° C./min with a five minute holding time at 135° C., or 25° C. to 150° C. at 5° C./min with a one minute holding time at 150° C.
A micronized sample of apratastat polymorph form A was subjected to three separate DSC experiments performed in the open pan mode as described in Example 5 above using the 120° C., 135° C., and 150° C. heating profiles. Each sample was cooled to ambient temperature and then recovered for powder X-ray diffraction (XRD) analysis as described in Example 2.
A milled sample of apratastat polymorph form A was subjected to similar DSC conditions.

The test system of data set [3] is TNF-α. As to the kind of experiment: primate lipopolysaccharide (LPS) model. It counts as in vivo.
In data set [4] the test system is TNF-α. The data set is described as follows: murine lipopolysaccharide (LPS) model. Type of data set: in vivo.
Data set [5] relates to human synovium tissue explants from patients suffering from rheumatoid arthritis. The data set is described as follows: TNF-α secretion by human synovium tissue explants. It counts as cell-based.
The target of data set [6] is T1, TNF-α converting enzyme (TACE) (Homo sapiens, UniProt P78536). The note with it: as described in U.S. Pat. No. 6,225,311; cited from earlier work.
In data set [7] the test system is matrix metalloproteinase (MMP). The following applies: cited from earlier work.
The target in data set [8] is T1, TNF-α converting enzyme (TACE). As to the kind of experiment: TACE inhibition in vitro. Type of data set: biochemical.

Where two headings read alike, the source gives them in different places.

T1 sequence (P78536 215-824, species assumed): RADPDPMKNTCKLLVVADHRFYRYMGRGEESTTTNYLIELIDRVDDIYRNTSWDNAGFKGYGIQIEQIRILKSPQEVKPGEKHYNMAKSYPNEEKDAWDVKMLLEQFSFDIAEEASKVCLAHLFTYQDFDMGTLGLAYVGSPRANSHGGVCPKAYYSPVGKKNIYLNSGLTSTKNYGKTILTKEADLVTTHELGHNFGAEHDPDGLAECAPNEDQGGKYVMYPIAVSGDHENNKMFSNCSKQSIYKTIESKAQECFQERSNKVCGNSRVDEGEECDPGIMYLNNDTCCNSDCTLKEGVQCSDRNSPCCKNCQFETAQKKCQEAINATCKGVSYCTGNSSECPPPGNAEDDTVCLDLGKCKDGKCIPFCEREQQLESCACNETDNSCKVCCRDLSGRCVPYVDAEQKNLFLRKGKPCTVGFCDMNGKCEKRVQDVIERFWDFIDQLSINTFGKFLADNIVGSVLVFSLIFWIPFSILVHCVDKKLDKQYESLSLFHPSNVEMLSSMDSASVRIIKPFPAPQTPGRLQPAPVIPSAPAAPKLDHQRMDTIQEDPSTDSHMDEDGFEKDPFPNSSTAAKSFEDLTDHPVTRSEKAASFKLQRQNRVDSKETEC

With `CC1(C)SCCN(S(=O)(=O)c2ccc(OCC#CCO)cc2)[C@H]1C(=O)NO` [Form B, (3S)-N-hydroxy-4-({4-[(4-hydroxy-2-butynyl)oxy]phenyl}sulfonyl)-2,2-dimethyl-3-thiomorpholinecarboxamide], in data set [1] (ambient conditions, little or no energy input), the “solid form stability under ambient conditions” value is on record as “can convert back to form A”. For the same compound, in data set [1] (at or above about 35° C., ambient humidity levels), the “solid form stability upon mild heating” value is “disappears”.
For `CC1(C)SCCN(S(=O)(=O)c2ccc(OCC#CCO)cc2)[C@H]1C(=O)NO` [apratastat polymorph form A, (3S)-N-hydroxy-4-({4-[(4-hydroxy-2-butynyl)oxy]phenyl}sulfonyl)-2,2-dimethyl-3-thiomorpholinecarboxamide], the “XRD form after heating” value in data set [2] (micronized sample, 120° C. heating profile, open pan) was “Form C”; in data set [2] (micronized sample, 135° C. heating profile, open pan) it was “Form C”; in data set [2] (micronized sample, 150° C. heating profile, open pan), “Amorphous”; in data set [2] (milled sample, 120° C. heating profile) it was “Form C + D”; in data set [2] (milled sample, 135° C. heating profile) it was “Form C + D”; in data set [2] (milled sample, 150° C. heating profile), “Form D”. In addition, the “solid form stability in low-moisture environment” value in data set [1] (about 4-5% relative humidity, at or near room temperature) is “a portion or all of the polymorph may convert to a new form (form B)”.
For the compound `CC1(C)SCCN(S(=O)(=O)c2ccc(OCC#CCO)cc2)[C@H]1C(=O)NO` [apratastat, (3S)-N-hydroxy-4-({4-[(4-hydroxy-2-butynyl)oxy]phenyl}sulfonyl)-2,2-dimethyl-3-thiomorpholinecarboxamide], the TNF-α inhibition entry with TNF-α [3] and in the data set on TNF-α [4] was “potent TNF-α inhibitor” throughout. In addition, the “inhibition of TNF-α secretion” value in data set [5] is “inhibits TNF-α secretion”. Further, the “inhibition of TACE” value is “inhibitor” in data set [6]; “potent, reversible, and competitive inhibitor” in data set [8]. Moreover, the “inhibition of MMP enzymes” value in data set [7] is on record as “inhibitor”.
